Numbers after ± are expanded uncertainties.
Experiments:
[1] = Liquid; for mass density: 298.15 K, 101.33 kPa
[2] = refractive index (Na D-line) (dimensionless); details: 298.15 K; 101.33 kPa; Liquid

| Compound | mass density [1] | refractive index [2] | vapor or sublimation pressure ([1]; 350.05 K) | vapor or sublimation pressure ([1]; 354.15 K) | vapor or sublimation pressure ([1]; 340.25 K) | vapor or sublimation pressure ([1]; 370.55 K) | vapor or sublimation pressure ([1]; 409.35 K) | vapor or sublimation pressure ([1]; 402.95 K) |
| --- | --- | --- | --- | --- | --- | --- | --- | --- |
| Cc1ccc(C)cc1 [1,4-dimethylbenzene] | 856.6 ± 2.1 kg/m3 | 1.4933 ± 0.0016 |  |  |  |  | 95.8 ± 5 kPa |  |
| Clc1ccccc1 [chlorobenzene] | 1100.9 ± 2.9 kg/m3 | 1.5219 ± 0.0016 |  |  |  |  |  | 95.8 ± 5 kPa |
| Cc1cccc(C)c1 [1,3-dimethylbenzene] | 860.1 ± 2.1 kg/m3 | 1.4946 ± 0.0016 |  |  |  |  | 95.8 ± 5 kPa |  |

More lines, main results first:

| mass density [1] | refractive index [2] | vapor or sublimation pressure ([1]; 350.05 K) | vapor or sublimation pressure ([1]; 354.15 K) | vapor or sublimation pressure ([1]; 340.25 K) | vapor or sublimation pressure ([1]; 370.55 K) | Compound | vapor or sublimation pressure ([1]; 409.35 K) | vapor or sublimation pressure ([1]; 402.95 K) |
| --- | --- | --- | --- | --- | --- | --- | --- | --- |
| 784.9 ± 1.8 kg/m3 | 1.3594 ± 0.0016 | 95.8 ± 5 kPa |  |  |  | CCO [ethanol] |  |  |
| 781.2 ± 1.8 kg/m3 | 1.3852 ± 0.0016 |  | 95.8 ± 5 kPa |  |  | CC(C)(C)O [2-methylpropan-2-ol] |  |  |
| 654.8 ± 1.4 kg/m3 | 1.3723 ± 0.0016 |  |  | 95.8 ± 5 kPa |  | CCCCCC [hexane] |  |  |
| 687.8 ± 1.5 kg/m3 | 1.3889 ± 0.0016 |  |  |  | 95.8 ± 5 kPa | CC(C)CC(C)(C)C [2,2,4-trimethylpentane] |  |  |
